27 compounds from patent US8916565B2, “Pyrrolopyrazine-spirocyclic piperidine amides as modulators of ion channels” (priority 2011, dated 2014) can be followed below.

pIC50: −log10 of the molar value.

For the assay, the target named is human NaV subtype, like NaV 1.7 (Homo sapiens, UniProt Q15858). As to the kind of experiment: E-VIPR optical membrane potential assay with electrical stimulation. It counts as cell-based. To be noted: active against one or more sodium channels; Table 3 does not name the assay or NaV subtype; read-out: Binned Activity Data (IC50).
Chain of human NaV subtype, like NaV 1.7 (Q15858 whole entry): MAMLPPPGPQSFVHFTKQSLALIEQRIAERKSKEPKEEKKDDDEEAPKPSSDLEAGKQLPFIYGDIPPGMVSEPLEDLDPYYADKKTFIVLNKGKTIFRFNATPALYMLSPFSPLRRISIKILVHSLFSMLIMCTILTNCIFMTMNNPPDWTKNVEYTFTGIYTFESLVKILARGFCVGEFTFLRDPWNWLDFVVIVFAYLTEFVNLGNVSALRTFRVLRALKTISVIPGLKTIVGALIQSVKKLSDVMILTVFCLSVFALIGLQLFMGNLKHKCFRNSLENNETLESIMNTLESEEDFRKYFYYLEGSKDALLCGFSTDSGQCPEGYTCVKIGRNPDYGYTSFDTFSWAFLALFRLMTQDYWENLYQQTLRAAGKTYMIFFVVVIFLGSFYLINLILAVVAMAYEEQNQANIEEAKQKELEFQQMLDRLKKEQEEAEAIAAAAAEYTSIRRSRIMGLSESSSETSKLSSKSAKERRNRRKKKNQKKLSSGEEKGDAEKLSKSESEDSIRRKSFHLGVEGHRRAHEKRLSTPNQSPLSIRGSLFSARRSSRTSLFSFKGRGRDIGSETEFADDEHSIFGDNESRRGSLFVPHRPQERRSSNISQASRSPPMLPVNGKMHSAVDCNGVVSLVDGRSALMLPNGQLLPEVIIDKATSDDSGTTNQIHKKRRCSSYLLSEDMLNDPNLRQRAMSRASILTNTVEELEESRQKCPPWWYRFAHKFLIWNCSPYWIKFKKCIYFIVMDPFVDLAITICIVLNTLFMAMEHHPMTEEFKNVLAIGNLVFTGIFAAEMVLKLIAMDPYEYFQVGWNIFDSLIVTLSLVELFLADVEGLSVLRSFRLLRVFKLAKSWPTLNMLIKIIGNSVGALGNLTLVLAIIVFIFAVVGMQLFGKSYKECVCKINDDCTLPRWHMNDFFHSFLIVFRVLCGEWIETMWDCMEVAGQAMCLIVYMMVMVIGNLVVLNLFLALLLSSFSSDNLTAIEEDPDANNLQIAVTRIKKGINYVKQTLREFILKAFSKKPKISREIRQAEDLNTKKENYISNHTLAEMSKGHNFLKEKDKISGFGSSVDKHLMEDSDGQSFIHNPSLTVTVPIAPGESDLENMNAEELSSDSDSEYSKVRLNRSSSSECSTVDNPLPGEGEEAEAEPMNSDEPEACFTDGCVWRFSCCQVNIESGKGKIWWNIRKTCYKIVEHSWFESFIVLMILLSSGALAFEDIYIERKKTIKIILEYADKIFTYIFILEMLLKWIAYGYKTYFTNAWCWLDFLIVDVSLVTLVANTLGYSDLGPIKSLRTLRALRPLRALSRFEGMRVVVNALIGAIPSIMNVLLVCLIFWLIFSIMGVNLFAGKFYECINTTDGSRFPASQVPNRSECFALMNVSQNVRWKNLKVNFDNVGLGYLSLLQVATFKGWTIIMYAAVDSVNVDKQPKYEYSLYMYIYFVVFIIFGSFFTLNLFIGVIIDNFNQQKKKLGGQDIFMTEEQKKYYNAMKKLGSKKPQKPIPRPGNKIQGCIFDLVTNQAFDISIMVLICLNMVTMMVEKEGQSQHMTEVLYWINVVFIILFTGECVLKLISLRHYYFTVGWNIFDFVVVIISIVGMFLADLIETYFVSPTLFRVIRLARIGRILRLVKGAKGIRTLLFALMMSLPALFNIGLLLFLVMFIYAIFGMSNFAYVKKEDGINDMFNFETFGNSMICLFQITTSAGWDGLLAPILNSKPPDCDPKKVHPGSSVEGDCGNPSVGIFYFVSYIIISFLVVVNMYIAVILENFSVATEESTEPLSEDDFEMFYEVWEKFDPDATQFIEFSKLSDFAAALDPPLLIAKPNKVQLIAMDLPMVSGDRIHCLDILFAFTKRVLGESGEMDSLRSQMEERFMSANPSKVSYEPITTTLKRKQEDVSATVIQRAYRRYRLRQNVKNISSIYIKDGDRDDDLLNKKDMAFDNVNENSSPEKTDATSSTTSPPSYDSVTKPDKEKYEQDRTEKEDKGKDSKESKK
As a reminder, the pIC50 is the negative decadic logarithm of the IC50, by convention in mol/L. For `CC(C)C(=O)c1ccc2n1CCN(C)C21CCN(C(=O)c2ccc(O)c(Cl)c2)CC1` [Compound 620], the negative logarithm of the IC50 (pIC50) was 5.30 to 5.70.

Regarding `COc1ccc(C(=O)N2CCC3(CC2)NCC(C)n2c(C(=O)C(F)(F)F)ccc23)nc1C` (stereo not drawn) [Compound 503], the negative logarithm of the IC50 (pIC50) is at least 5.70.

On to `COc1ccc(C(=O)N2CCC3(CC2)NC(C)(C)Cn2c(C(=O)C(F)(F)F)ccc23)c(C)c1` [Compound 738], for which the pIC50 was at least 5.70.

In the case of `CC(C)Oc1ccc(C(=O)N2CCC3(CC2)NCCn2c(C(F)(F)F)ccc23)cc1` [Compound 273], the negative logarithm of the IC50 (pIC50) was 5.30 to 5.70.

On to `CCCCOc1cc(C(=O)N2CCC3(CC2)c2ccc(Cl)n2CCN3C)ccc1OC` [Compound 539], for which the pIC50 was below 5.30.

In the case of `COc1cc(C(=O)N2CCC3(CC2)NC(C)(C)Cn2cc(C(C)=O)cc23)ccc1C(C)(C)C` [Compound 364], the pIC50 is below 5.30.

`C[C@H]1Cn2c(C(=O)C(F)(F)F)ccc2C2(CCN(C(=O)c3ccc(S(=O)(=O)NC4CC4)cc3)CC2)N1C` [Compound 669]: the negative-log IC50 (pIC50) was at least 5.70.

Take `CC(=O)c1ccc2n1CCN(C)C21CCN(C(=O)c2ccc(OC(C)C)c(C#N)c2)CC1` [Compound 285]: the pIC50 was 5.30 to 5.70.

As for `CN1CCn2c(C(F)(F)F)cc(F)c2C12CCN(C(=O)c1ccc(S(=O)(=O)NC3CC3)cc1)CC2` [Compound 666], the negative-log IC50 (pIC50) is at least 5.70.

In the case of `CCc1ccc(C(=O)N2CCC3(CC2)c2ccc(C(F)(F)F)n2CCN3C)nc1` [Compound 345], the pIC50 was below 5.30.

For `CC(=O)c1ccc2n1CCN(C)C21CCN(C(=O)c2ccc(OC(C)C)c(CO)c2)CC1` [Compound 558], the negative logarithm of the IC50 (pIC50) is below 5.30.

In the case of `CC(=O)c1cc2n(c1)CC(C)(C)NC21CCN(C(=O)c2ccc(OC(C)C)c(C)c2)CC1` [Compound 454], the pIC50 was below 5.30.

Regarding `C[C@H]1Cn2c(C(=O)C(F)(F)F)ccc2C2(CCN(C(=O)c3ccccc3OC(F)F)CC2)N1C` [Compound 552], the negative-log IC50 (pIC50) is at least 5.70.

Turning to `CC(=O)c1ccc2n1CCN(C)C21CCN(C(=O)c2ccc(-c3ccccc3)cc2)CC1` [Compound 163], the pIC50 is below 5.30.

With `CC1(C)Cn2c(C(=O)C(F)(F)F)ccc2C2(CCN(C(=O)c3ccc(C(C)(C)O)c(F)c3)CC2)N1` [Compound 254], the pIC50 was at least 5.70.

Take `COc1ccc(C(=O)N2CCC3(CC2)c2ccc(C(=O)C(F)(F)F)n2CCN3C)nc1C` [Compound 746]: the negative-log IC50 (pIC50) is at least 5.70.

Regarding `COc1ccc(C(=O)N2CCC3(CC2)NC(C)(C)Cn2c(C(C)=O)ccc23)cc1C` [Compound 613], the pIC50 is below 5.30.

As for `CC(=O)Nc1ccc(-c2ccc(C(=O)N3CCC4(CC3)c3ccc(C(=O)C(F)(F)F)n3CCN4C)cc2C)cn1` [Compound 653], the pIC50 is 5.30 to 5.70.

Turning to `C[C@H]1Cn2c(C(=O)C(F)(F)F)ccc2C2(CCN(C(=O)c3ccc(COCCC(F)(F)F)cc3)CC2)N1C` [Compound 449], the pIC50 is at least 5.70.

`COc1cc(C(=O)N2CCC3(CC2)c2ccc(C(F)(F)F)n2CCN3C2CCC2)ccc1OC(C)C` [Compound 317]: the negative logarithm of the IC50 (pIC50) was 5.30 to 5.70.

Take `Cc1cc(C(=O)N2CCC3(CC2)c2ccc(C(=O)C(C)C)n2CCN3C)ccc1O` [Compound 140]: the pIC50 is at least 5.70.

Turning to `CC(=O)c1ccc2n1CCN(C)C21CCN(C(=O)c2ccc(C(OCC(F)(F)F)OCC(F)(F)F)c(Cl)c2)CC1` [Compound 739], the negative-log IC50 (pIC50) was below 5.30.

As for `CC(C)Oc1ccc(C(=O)N2CCC3(CC2)c2ccc(S(C)(=O)=O)n2CCN3C)cc1Cl` [Compound 111], the negative logarithm of the IC50 (pIC50) was below 5.30.

Turning to `CNC(=O)N1CCn2c(C(F)(F)F)ccc2C12CCN(C(=O)c1ccc(OC(C)C)c(C)c1)CC2` [Compound 533], the pIC50 is at least 5.70.

Consider `CN1CCn2c(Cl)ccc2C12CCN(C(=O)c1ccc(OCC(F)(F)F)cc1)CC2` [Compound 330], for which the pIC50 was 5.30 to 5.70.

Turning to `CC(C)Oc1ccc(C(=O)N2CCC3(CC2)c2c(F)cc(C(F)(F)F)n2CCN3C)cn1` [Compound 431], the pIC50 was 5.30 to 5.70.

Turning to `CCC(=O)c1ccc2n1CCN(C)C21CCN(C(=O)c2ccc(OC(C)C)c(Cl)c2)CC1` [Compound 107], the pIC50 was at least 5.70.
